Measured values as given in the supplement of paper PMC10307832.

What was measured:
Assay in all cases: relative viability (nuclei count vs DMSO), 5 days (fraction); higher = more cells survive
LU99A = tested on: LU99A
Outline: (§1)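 Five library-drug doses in √10 steps were combined with a fixed anchor-drug dose, or a single drug was given alone, by pin tool to lung cancer cell lines in 1536-well plates the day after seeding. Nuclei were stained and counted after 5 days. Relative viability is the nuclei count in treated wells over that in vehicle wells, taken as the median of duplicate plates.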

LC-2-ad = tested on: LC-2-ad
Outline: as §1

NCI-H358 = tested on: NCI-H358
Outline: as §1

UMC-11 = tested on: UMC-11
Outline: as §1

NCI-H1915 = tested on: NCI-H1915
Outline: as §1

NCI-H1944 = tested on: NCI-H1944
Outline: as §1

HOP-62 = tested on: HOP-62
Outline: as §1

NCI-H1666 = tested on: NCI-H1666
Outline: as §1

NCI-H1793 = tested on: NCI-H1793
Outline: as §1

HCC-78 = tested on: HCC-78
Outline: as §1

SK-LU-1 = tested on: SK-LU-1
Outline: as §1

NCI-H2085 = tested on: NCI-H2085
Outline: as §1

EPLC-272H = tested on: EPLC-272H
Outline: as §1

COR-L 105 = tested on: COR-L 105
Outline: as §1

NCI-H460 = tested on: NCI-H460
Outline: as §1

A-427 = tested on: A-427
Outline: as §1

HCC-366 = tested on: HCC-366
Outline: as §1

NCI-H2009 = tested on: NCI-H2009
Outline: as §1

NCI-H1792 = tested on: NCI-H1792
Outline: as §1

LXF-289 = tested on: LXF-289
Outline: as §1

`Cc1sc2c(c1C)C(c1ccc(Cl)cc1)=N[C@@H](CC(=O)OC(C)(C)C)c1nnc(C)n1-2` [JQ1] + C[C@]1(O)C[C@@H](c2nc(-c3ccc4ccc(-c5ccccc5)nc4c3)c3c(N)nccn32)C1 [Linsitinib] (partner 1 µM) was tested, and the relative viability (LU99A; first compound 0.04 µM) was 0.573, the relative viability (LU99A; first compound 0.1265 µM) was 0.516 and the relative viability (LU99A; first compound 0.4 µM) was 0.325. It also gave a relative viability (LU99A; first compound 1.265 µM) of 0.292, a relative viability (LU99A; first compound 4 µM) of 0.202 and a relative viability (LC-2-ad; first compound 0.04 µM) of 0.753. For the same compound, the relative viability (LC-2-ad; first compound 0.1265 µM) was 0.773, the relative viability (LC-2-ad; first compound 0.4 µM) was 0.463 and the relative viability (LC-2-ad; first compound 1.265 µM) was 0.253. It also gave a relative viability (LC-2-ad; first compound 4 µM) of 0.265, a relative viability (NCI-H358; first compound 0.04 µM) of 0.645 and a relative viability (NCI-H358; first compound 0.1265 µM) of 0.829. For the same compound, the relative viability (NCI-H358; first compound 0.4 µM) was 0.715, the relative viability (NCI-H358; first compound 1.265 µM) was 0.442 and the relative viability (NCI-H358; first compound 4 µM) was 0.45. The relative viability (UMC-11; first compound 0.04 µM) was 0.866, the relative viability (UMC-11; first compound 0.1265 µM) was 0.793 and the relative viability (UMC-11; first compound 0.4 µM) was 0.321. For the same compound, the relative viability (UMC-11; first compound 1.265 µM) was 0.237, the relative viability (UMC-11; first compound 4 µM) was 0.203 and the relative viability (NCI-H1915; first compound 0.04 µM) was 1.15. For the same compound, the relative viability (NCI-H1915; first compound 0.1265 µM) was 0.966, the relative viability (NCI-H1915; first compound 0.4 µM) was 1.08 and the relative viability (NCI-H1915; first compound 1.265 µM) was 0.652. The relative viability (NCI-H1915; first compound 4 µM) was 0.383, the relative viability (NCI-H1944; first compound 0.04 µM) was 1.15 and the relative viability (NCI-H1944; first compound 0.1265 µM) was 0.874. For the same compound, the relative viability (NCI-H1944; first compound 0.4 µM) was 0.922, the relative viability (NCI-H1944; first compound 1.265 µM) was 0.623 and the relative viability (NCI-H1944; first compound 4 µM) was 0.557. The relative viability (HOP-62; first compound 0.04 µM) was 1.01, the relative viability (HOP-62; first compound 0.1265 µM) was 0.869 and the relative viability (HOP-62; first compound 0.4 µM) was 0.694. For the same compound, the relative viability (HOP-62; first compound 1.265 µM) was 0.11, the relative viability (HOP-62; first compound 4 µM) was 0.106 and the relative viability (NCI-H1666; first compound 0.04 µM) was 0.811. The relative viability (NCI-H1666; first compound 0.1265 µM) was 0.844, the relative viability (NCI-H1666; first compound 0.4 µM) was 0.842 and the relative viability (NCI-H1666; first compound 1.265 µM) was 0.475. For the same compound, the relative viability (NCI-H1666; first compound 4 µM) was 0.484, the relative viability (NCI-H1793; first compound 0.04 µM) was 0.936 and the relative viability (NCI-H1793; first compound 0.1265 µM) was 0.755. The relative viability (NCI-H1793; first compound 0.4 µM) was 0.923, the relative viability (NCI-H1793; first compound 1.265 µM) was 0.715 and the relative viability (NCI-H1793; first compound 4 µM) was 0.952. The relative viability (HCC-78; first compound 0.04 µM) was 0.536, the relative viability (HCC-78; first compound 0.1265 µM) was 0.438 and the relative viability (HCC-78; first compound 0.4 µM) was 0.403. For the same compound, the relative viability (HCC-78; first compound 1.265 µM) was 0.255, the relative viability (HCC-78; first compound 4 µM) was 0.249 and the relative viability (SK-LU-1; first compound 0.04 µM) was 1.16. It also gave a relative viability (SK-LU-1; first compound 0.1265 µM) of 0.952, a relative viability (SK-LU-1; first compound 0.4 µM) of 0.782 and a relative viability (SK-LU-1; first compound 1.265 µM) of 0.239. For the same compound, the relative viability (SK-LU-1; first compound 4 µM) was 0.178, the relative viability (NCI-H2085; first compound 0.04 µM) was 0.99 and the relative viability (NCI-H2085; first compound 0.1265 µM) was 0.652. For the same compound, the relative viability (NCI-H2085; first compound 0.4 µM) was 0.642, the relative viability (NCI-H2085; first compound 1.265 µM) was 0.687 and the relative viability (NCI-H2085; first compound 4 µM) was 0.453. It also gave a relative viability (EPLC-272H; first compound 0.04 µM) of 1.14, a relative viability (EPLC-272H; first compound 0.1265 µM) of 1.07 and a relative viability (EPLC-272H; first compound 0.4 µM) of 1.12. For the same compound, the relative viability (EPLC-272H; first compound 1.265 µM) was 0.502, the relative viability (EPLC-272H; first compound 4 µM) was 0.418 and the relative viability (COR-L 105; first compound 0.04 µM) was 0.868. For the same compound, the relative viability (COR-L 105; first compound 0.1265 µM) was 0.579, the relative viability (COR-L 105; first compound 0.4 µM) was 0.349 and the relative viability (COR-L 105; first compound 1.265 µM) was 0.299. It also gave a relative viability (COR-L 105; first compound 4 µM) of 0.319, a relative viability (NCI-H460; first compound 0.04 µM) of 0.661 and a relative viability (NCI-H460; first compound 0.1265 µM) of 0.54. For the same compound, the relative viability (NCI-H460; first compound 0.4 µM) was 0.278, the relative viability (NCI-H460; first compound 1.265 µM) was 0.0494 and the relative viability (NCI-H460; first compound 4 µM) was 0.0357. For the same compound, the relative viability (A-427; first compound 0.04 µM) was 1.19, the relative viability (A-427; first compound 0.1265 µM) was 1.04 and the relative viability (A-427; first compound 0.4 µM) was 1.14. The relative viability (A-427; first compound 1.265 µM) was 1.06, the relative viability (A-427; first compound 4 µM) was 0.721 and the relative viability (HCC-366; first compound 0.04 µM) was 0.6. The relative viability (HCC-366; first compound 0.4 µM) was 0.639, the relative viability (HCC-366; first compound 1.265 µM) was 0.326 and the relative viability (HCC-366; first compound 4 µM) was 0.193. The relative viability (NCI-H2009; first compound 0.04 µM) was 1.13, the relative viability (NCI-H2009; first compound 0.1265 µM) was 0.995 and the relative viability (NCI-H2009; first compound 0.4 µM) was 0.724. It also gave a relative viability (NCI-H2009; first compound 1.265 µM) of 0.279, a relative viability (NCI-H2009; first compound 4 µM) of 0.263 and a relative viability (NCI-H1792; first compound 0.04 µM) of 0.587. It also gave a relative viability (NCI-H1792; first compound 0.4 µM) of 0.569, a relative viability (NCI-H1792; first compound 1.265 µM) of 0.31 and a relative viability (NCI-H1792; first compound 4 µM) of 0.274. For the same compound, the relative viability (LXF-289; first compound 0.04 µM) was 0.986, the relative viability (LXF-289; first compound 0.1265 µM) was 0.968 and the relative viability (LXF-289; first compound 0.4 µM) was 0.903. The relative viability (LXF-289; first compound 1.265 µM) was 0.761 and the relative viability (LXF-289; first compound 4 µM) was 0.34.
